Reference: patent US20250144187A1, “COMBINATION OF HYDROLASES AND ANTI-MICROORGANISM DRUGS AND USES THEREOF” (CENTRE FOR EYE AND VISION RESEARCH LIMITED, priority 2023, published 2025)

Columns and labels:
MRSA-infected skin wound = assay: Rat skin infection model, cefdinir/lysozyme; assay type: in vivo, Sprague Dawley (SD) rats; conditions: combination therapy vs control or mono-therapy groups
Method: 16) Rat skin Infection model. […] Others were infected by about 5×10^11 CFU of mid-log phase MRSA from our own collection. Briefly, all rats were firstly pre-depilated by using 10% Na2S to get an uncovered back area of 4 cm×4 cm prior to 24 hours for the anesthetization on rats. Then, the skin of anesthetized rat was removed until fascial region under sterile condition, followed by bacterial infection by spraying 5×10^11 CFU of MRSA suspension on wound (3 cm×3 cm). To collect these bacterial suspensions, mid-log phase MRSA would be collected by centrifugation at 4500 g for 15 minutes washed with PBS for 3 limes and re-suspended in cold PBS to get bacterial suspension with an initial density of about 4.0×10^11 CFU/ml according to pre-experiment. Next, 1.25 ml of bacterial suspensions was inoculated into wound, Normal saline was used to replace bacterial suspension in uninfected group. After 1 hour infection, wound of infected rat was covered by sterile medical gauze. All sterile medical gauzes were 0.2 g/cm^2, which were further covered by two layers of sterile gauzes and fixed by sterile tapes. After that, rats were monitored until they were fully awake, followed by return to their cages. After 24 hours infection, these sterile medical gauzes were replaced with new sterile medical gauzes. […] About 4-μm sections was analyzed by using the hematoxylin and eosin (H-E) staining. […]

ARPE-19 cells = assay type: cell-based; conditions: human, 24 h
Method: 14) Toxicities analysis on lysozyme and cefdinir. Toxicities analysis of lysozyme and cefdinir were performed on ARPE-19 and 293T cells [Guo H et al., ACS Chem Biol 17, 2003-2009 (2022)]. Drugs at different concentrations were added into the plates, in which cells had 80% confluency. Those without any drug's treatment served as control group. Ater 24 hours culture at 37° C., survival cells were counted by using CCK-8 kit, 100% survival ratio (no toxicity) was defined as those had same number of survival cells in control group.

MRSE [1] = assay: Check board broth micro-dilution assay, tedizolid phosphate with lysozyme; assay type: cell-based, Staphylococcus epidermis; conditions: tedizolid phosphate and lysozyme
Method: (§1) 2) Check board broth micro-dilution assays. According to standard two-fold dilution method [Sun. H et al., Nat. Commun. 11, 5263 (2020) tedizolid phosphate at different concentrations were added into fresh LB medium (or trypticase soy troth medium with 5% defibrinated horse blood) containing different concentrations of human lysozyme in 96-well plate. Then, 20 μl of 1.0×10^7 CFU/ml logarithmic cultures of MRSA or MRSE were added into each well of the plate and co-incubated overnight. Drug-free LB medium in the absence or presence of bacteria served as background control and growth control group, respectively. […] Thus, there would be a series of FICI values. In most of cases, the lowest one among these values was listed to reflect the best achieving degree of combination therapy. In terms of the lowest FICI, FICI≤0.5, 0.5<FICI<1 or FICI≥1, would indicate the combination has synergy, part synergy or non-synergy effects, respectively.

[2] = tested on: ocular bacterial communities in tears; assay: Microbiome assay (16S rRNA) in ocular infection model; assay type: in vivo, C57BL/6 mice; conditions: combination therapy; infected untreated ~3%, healthy 0.052%
MRSA = assay: Check board broth micro-dilution assay, tedizolid phosphate with lysozyme; assay type: cell-based, Staphylococcus aureus; conditions: for FICI: tedizolid phosphate + lysozyme
Method: as §1

MRSE [3] = assay: Time-killing curves, tedizolid phosphate/lysozyme; assay type: cell-based, Staphylococcus epidermis; conditions: tedizolid phosphate + 0.5 mg/ml lysozyme, after 22 hours; dropping from the level of 10^12
[4] = tested on: alkaline phosphatase extracted from MRSA; assay: Enzyme activity of alkaline phosphatase (in vitro hydrolysis of tedizolid phosphate); assay type: biochemical, Staphylococcus aureus; conditions: enzyme from MRSA of the combination therapy group, after 1 hour
Method: 14) Enzyme activity of alkaline phosphatase. All enzyme activities of alkaline phosphatase were analyzed according to the modified method as previously described [Zhao, X.-y et al., Nature 46, 86-90 (2009); Zhang, XC e al., Anal. Chem. 92, 5185-5190 (2020); Rosch, J. & Caparon, M. Science 304, 1513-1151 (2004); Wang. W et al., PLoS One 10, e012403512013); Ghosh, S. S et al., Circ. Res. 128, 1646-1659 (2021)]. Briefly, mid-log-phase MRSA or MRSE was treated with lysozyme, tedizolid phosphate or their combination at different concentrations. Those without any treatment served as untreated group. After incubation at 37° C. for 1 hour, all samples were collected, washed by distilled water and re-suspended in distilled water to collect bacterial suspension with an initial density of about 5.0×10^12 CFU/ml according to pre-experiment. Then, sonication lysis for 40 minutes at 4° C. and centrifugation at 18,000 g at 4° C. for 20 minutes were performed to collect these supernatants. Next, 20 μl of each supernatant was incubated with 4 μg of tedizolid phosphate. […] These slides were visualized under fluorescence microscopy and randomly selected bacteria were analyzed at ×1,500 magnification. To quantify the enzyme activity, similar protocol was performed on cell lysis supernatant instead of above-described bacterial suspension. Finally, absorption spectrums (300-800 nm) were collected and analyzed. […]

| Structure (SMILES) | decrease in the level of IL-6 in wounds (MRSA-infected skin wound) [%] | decrease in the level of ROS in wounds (MRSA-infected skin wound) | safe concentration without any effect on cell survival ratios (ARPE-19 cells) [µg/mL] | fractional inhibitory concentration index (FICI) (MRSE [1]) | proportion of Staphylococcus in tear bacterial communities [2] [%] | FICI (MRSA; absence of urea-cycle inhibitors) | FICI (MRSA; cultures of both inhibitors) | FICI (MRSA; presence of BB-Cl-Amidine or acetohydroxamic acid) | fractional inhibitory concentration index (FICI) (MRSA; tedizolid phosphate and lysozyme) | bacterial load per ml culture (MRSE [3]) | tedizolid phosphate hydrolyzed [4] |
| --- | --- | --- | --- | --- | --- | --- | --- | --- | --- | --- | --- |
| C=CC1=C(C(=O)O)N2C(=O)[C@@H](NC(=O)/C(=N\O)c3csc(N)n3)[C@H]2SC1 [cefdinir, Cefdinir] | > 16 | more than 36% | < 64 |  |  |  |  |  |  |  |  |
| Cn1nnc(-c2ccc(-c3ccc(N4C[C@H](COP(=O)(O)O)OC4=O)cc3F)cn2)n1 [tedizolid phosphate, Tedizolid Phosphate] |  |  |  | < 0.023 | ~0.078 | 0.015 | up to 0.25 | 0.1 | < 0.023 | 10^6 colony forming units (CFUs) | up to 65% |
